Biological target: Stimulator of interferon genes protein (Homo sapiens, UniProt Q86WV6)
Test: Agonist activity at full length human STING expressed in HEK293T cotransfected with pISRE-luc and cGAS incubated for 24 hrs by steady-glo luciferase reporter gene assay
Format: cell-based

Chain of Stimulator of interferon genes protein (Q86WV6 whole entry): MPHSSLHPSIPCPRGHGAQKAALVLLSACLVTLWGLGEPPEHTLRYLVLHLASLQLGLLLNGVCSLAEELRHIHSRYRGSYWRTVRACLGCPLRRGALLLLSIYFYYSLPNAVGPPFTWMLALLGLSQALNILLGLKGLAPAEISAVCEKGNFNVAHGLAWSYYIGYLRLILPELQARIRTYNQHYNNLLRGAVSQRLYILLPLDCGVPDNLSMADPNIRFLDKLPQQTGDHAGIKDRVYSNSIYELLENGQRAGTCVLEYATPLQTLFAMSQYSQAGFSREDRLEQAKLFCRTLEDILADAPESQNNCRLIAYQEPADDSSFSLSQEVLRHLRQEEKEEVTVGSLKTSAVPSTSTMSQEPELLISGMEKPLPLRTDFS

- EC50: 1000 nM
SMILES: CCCn1c(NC(=O)c2cc(C)nn2CC)nc2cc(C(N)=O)cc(OCN3CCOCC3)c21
